Data: BindingDB's records for doi:10.7270/Q2KP80J0 (The Scripps Research Institute Molecular Screening Center, 2007)

target: T1, Ephrin type-B receptor 4 (Homo sapiens, UniProt P54760); assay: blockers of EphB4 ligand binding – biochemical, TNYL-RAW peptide displacement, dose response (AID 835)
T1 sequence (P54760 whole entry): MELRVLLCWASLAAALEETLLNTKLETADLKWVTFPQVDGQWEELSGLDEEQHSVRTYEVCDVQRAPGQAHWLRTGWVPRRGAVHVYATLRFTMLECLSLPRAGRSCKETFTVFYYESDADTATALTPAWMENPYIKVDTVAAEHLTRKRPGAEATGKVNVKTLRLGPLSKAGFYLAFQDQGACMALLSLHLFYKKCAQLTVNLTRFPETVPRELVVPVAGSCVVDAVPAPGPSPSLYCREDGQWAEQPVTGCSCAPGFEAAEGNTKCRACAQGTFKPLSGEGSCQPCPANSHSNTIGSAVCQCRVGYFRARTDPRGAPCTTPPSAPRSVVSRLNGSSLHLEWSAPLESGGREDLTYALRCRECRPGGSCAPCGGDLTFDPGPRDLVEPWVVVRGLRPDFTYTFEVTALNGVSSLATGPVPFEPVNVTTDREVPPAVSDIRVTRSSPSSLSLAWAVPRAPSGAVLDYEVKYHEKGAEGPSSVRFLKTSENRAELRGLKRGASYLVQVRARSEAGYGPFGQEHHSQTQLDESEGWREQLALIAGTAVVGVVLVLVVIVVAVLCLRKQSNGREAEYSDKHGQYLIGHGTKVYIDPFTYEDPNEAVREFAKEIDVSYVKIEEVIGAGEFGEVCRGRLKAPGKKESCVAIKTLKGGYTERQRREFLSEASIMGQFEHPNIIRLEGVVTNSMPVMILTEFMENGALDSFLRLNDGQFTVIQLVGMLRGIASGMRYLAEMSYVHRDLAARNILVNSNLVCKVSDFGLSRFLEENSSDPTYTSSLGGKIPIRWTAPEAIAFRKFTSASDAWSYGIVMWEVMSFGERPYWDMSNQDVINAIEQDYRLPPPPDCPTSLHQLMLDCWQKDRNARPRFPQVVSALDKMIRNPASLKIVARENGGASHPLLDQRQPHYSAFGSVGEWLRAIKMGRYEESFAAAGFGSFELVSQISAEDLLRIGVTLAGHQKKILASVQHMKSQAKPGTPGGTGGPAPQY

**Q.** With `CN(C)c1nc2n(c(=O)n1)CCO2` [2-(dimethylamino)-6,7-dihydro-[1,3]oxazolo[3,2-a][1,3,5]triazin-4-one] as the compound, how does the IC50 read?
**A.** The IC50 was > 79.4 µM.

**Q.** With `O=C(CN1C(=O)NC2(CCCC2)C1=O)NCCC1=CCCCC1` [2-[2,4-bis(oxidanylidene)-1,3-diazaspiro[4.4]nonan-3-yl]-N-[2-(cyclohexen-1-yl)ethyl]ethanamide] as the compound, how does the IC50 read?
**A.** The IC50 was > 79.4 µM.

**Q.** `O=C(NNC(=O)C1CCCCC1)C(=O)NC1CCCCC1` [2-[2-(cyclohexanecarbonyl)hydrazinyl]-N-cyclohexyl-2-oxoacetamide] was tested. Which IC50 did it give?
**A.** The IC50 was > 79.4 µM.

**Q.** For `Cc1ccc(Nc2cnn(C34CC5CC(CC(CC(=O)O)(C5)C3)C4)c(=O)c2Cl)cc1` [2-[3-[5-chloro-4-(4-methylanilino)-6-oxo-1-pyridazinyl]-1-adamantyl]acetic acid], which IC50 is on record?
**A.** Its IC50 is > 79.4 µM.

**Q.** Which IC50 does the source give for `CC(=O)Nc1ccc(SCC(=O)OCC(=O)NC(=O)NCc2ccco2)cc1` [2-[(4-acetamidophenyl)thio]acetic acid [2-(2-furfurylcarbamoylamino)-2-keto-ethyl] ester] here?
**A.** The IC50 was > 79.4 µM.

**Q.** Which IC50 does the source give for `Cn1cnnc1SCC(=O)Nc1ccc2nc(SCc3cccc4ccccc34)sc2c1` [2-[(4-methyl-1,2,4-triazol-3-yl)sulfanyl]-N-[2-(naphthalen-1-ylmethylsulfanyl)-1,3-benzothiazol-6-yl]acetamide] here?
**A.** The IC50 was > 79.4 µM.

**Q.** Which IC50 does the source give for `CCCCCCOC(=O)C(C#N)c1nc2ccccc2nc1N1CCN(C)CC1` (stereo not given) [2-cyano-2-[3-(4-methyl-1-piperazinyl)-2-quinoxalinyl]acetic acid hexyl ester] here?
**A.** The IC50 was > 79.4 µM.

**Q.** How did the IC50 turn out when `CCC1CCCCN1C(=O)Nc1cccc(NC(=O)N2CCCCC2CC)c1` (stereo not given) [2-ethyl-N-[3-[(2-ethylpiperidin-1-yl)carbonylamino]phenyl]piperidine-1-carboxamide] was run?
**A.** The IC50 was > 79.4 µM.

**Q.** `Cc1cc(=O)n(CC(C)C)c(O)c1C#N` [2-hydroxy-1-isobutyl-4-methyl-6-oxo-1,6-dihydro-3-pyridinecarbonitrile] was tested. Which IC50 did it give?
**A.** Its IC50 is > 79.4 µM.

**Q.** Which IC50 does the source give for `Cc1cccc(NC(=O)CSc2nnc(-c3ccc(S(=O)(=O)N4CCCC4)cc3)o2)c1` [2-{5-[4-(Pyrrolidine-1-sulfonyl)-phenyl]-[1,3,4]oxadiazol-2-ylsulfanyl}-N-m-tolyl-acetamide] here?
**A.** Its IC50 is > 79.4 µM.

**Q.** `COc1ccc(C(=O)NN=C2SCC(=O)N2Cc2ccc3c(c2)OCO3)cc1OC` [3,4-Dimethoxy-benzoic acid (3-benzo[1,3]dioxol-5-ylmethyl-4-oxo-thiazolidin-2-ylidene)-hydrazide] was tested. Which IC50 did it give?
**A.** The IC50 was > 79.4 µM.

**Q.** `N#Cc1ncc(C(F)(F)F)cc1Sc1ccc(N)cc1` [3-(4-aminophenyl)sulfanyl-5-(trifluoromethyl)pyridine-2-carbonitrile] was tested. Which IC50 did it give?
**A.** Its IC50 is > 79.4 µM.

**Q.** For `COc1ccc2[nH]c(=O)c(CN(Cc3ccccc3)Cc3nnnn3CC3CCCO3)cc2c1` (stereo not given) [3-({Benzyl-[1-(tetrahydro-furan-2-ylmethyl)-1H-tetrazol-5-ylmethyl]-amino}-methyl)-6-methoxy-1H-quinolin-2-one], which IC50 is on record?
**A.** The IC50 was > 79.4 µM.

**Q.** For `C=CCn1c(C#N)c(N)sc1=N` [3-Allyl-5-amino-2-imino-2,3-dihydro-thiazole-4-carbonitrile], which IC50 is on record?
**A.** The IC50 was > 79.4 µM.

**Q.** `Cn1c(=O)c(NCCc2ccccc2)c2c3c(cccc31)C(=O)c1ccccc1-2` [3-Methyl-1-phenethylamino-3H-naphtho[1,2,3-de]quinoline-2,7-dione] was tested. Which IC50 did it give?
**A.** The IC50 was 1 µM.

**Q.** `Cc1cc(C(=O)CN2C(=O)NC(c3ccccc3)(c3ccccc3)C2=O)c(C)n1Cc1ccccc1` [3-[2-(1-benzyl-2,5-dimethyl-pyrrol-3-yl)-2-keto-ethyl]-5,5-diphenyl-hydantoin] was tested. Which IC50 did it give?
**A.** Its IC50 is > 79.4 µM.

**Q.** With `Cc1cc(C)n2nc(SC3CCCCN(C(=O)c4ccc(F)cc4)C3=O)nc2n1` (stereo not given) [3-[(5,7-dimethyl-[1,2,4]triazolo[1,5-a]pyrimidin-2-yl)sulfanyl]-1-(4-fluorobenzoyl)azepan-2-one] as the compound, how does the IC50 read?
**A.** The IC50 was > 79.4 µM.

**Q.** `CCOC(=O)c1oc2cccc(O)c2c1CN(Cc1ccccc1)C(C)=O` [3-[[acetyl(benzyl)amino]methyl]-4-hydroxy-coumarilic acid ethyl ester] was tested. Which IC50 did it give?
**A.** The IC50 was > 79.4 µM.

**Q.** With `CC1CCN(S(=O)(=O)c2cc(Br)cc(C(=O)NC3=NCCS3)c2)CC1` [3-bromanyl-N-(4,5-dihydro-1,3-thiazol-2-yl)-5-(4-methylpiperidin-1-yl)sulfonyl-benzamide] as the compound, how does the IC50 read?
**A.** The IC50 was > 79.4 µM.

**Q.** Which IC50 does the source give for `Clc1cccc(CN=Nc2ncnc3ccccc23)c1` [3-chlorobenzenecarbaldehyde N-(4-quinazolinyl)hydrazone] here?
**A.** The IC50 was > 79.4 µM.

**Q.** `CC(C)CC(=O)NC(=S)NCCc1ccccc1` [3-methyl-N-(2-phenylethylcarbamothioyl)butanamide] was tested. Which IC50 did it give?
**A.** The IC50 was > 79.4 µM.

**Q.** Which IC50 does the source give for `O=C(CCC1N=C2c3ccccc3N=C(SCc3ccc(F)cc3)N2C1=O)NCc1ccco1` (stereo not given) [3-{5-[(4-fluorobenzyl)thio]-3-oxo-2,3-dihydroimidazo[1,2-c]quinazolin-2-yl}-N-(2-furylmethyl)propanamide] here?
**A.** Its IC50 is > 79.4 µM.

**Q.** With `O=C(CC(O)(c1ccccc1)C(F)(F)F)c1cccs1` (stereo not given) [4,4,4-trifluoro-3-hydroxy-3-phenyl-1-(2-thienyl)-1-butanone] as the compound, how does the IC50 read?
**A.** The IC50 was > 79.4 µM.

**Q.** `CC1=C(C(=O)N2CCC3(CC2)OCCO3)C2(CCC(C)CC2)OC1=O` (stereo not given) [4-(1,4-dioxa-8-azaspiro[4.5]dec-8-ylcarbonyl)-3,8-dimethyl-1-oxaspiro[4.5]dec-3-en-2-one] was tested. Which IC50 did it give?
**A.** Its IC50 is > 79.4 µM.

**Q.** How did the IC50 turn out when `CN(c1ccc(Cl)cc1)c1cc(=O)n(C)c2ccccc12` [4-(4-chloro-N-methyl-anilino)-1-methyl-carbostyril] was run?
**A.** The IC50 was > 79.4 µM.

**Q.** For `CCOC(=O)N1CCC(n2c(SCC(=O)NCc3ccccc3)nc3ccccc3c2=O)CC1` [4-[2-[[2-(benzylamino)-2-keto-ethyl]thio]-4-keto-quinazolin-3-yl]piperidine-1-carboxylic acid ethyl ester], which IC50 is on record?
**A.** The IC50 was > 79.4 µM.

**Q.** Which IC50 does the source give for `CCOC(=O)N1CCC(n2c(SCC(=O)NCCC3=CCCCC3)nc3ccccc3c2=O)CC1` [4-[2-[[2-[2-(1-cyclohexenyl)ethylamino]-2-oxoethyl]thio]-4-oxo-3-quinazolinyl]-1-piperidinecarboxylic acid ethyl ester] here?
**A.** Its IC50 is > 79.4 µM.

**Q.** With `CC(O)c1cccc(NC(=O)CCC(=O)O)c1` (stereo not given) [4-[3-(1-hydroxyethyl)anilino]-4-keto-butyric acid] as the compound, how does the IC50 read?
**A.** Its IC50 is > 79.4 µM.

**Q.** How did the IC50 turn out when `O=S(=O)(N1CCOCC1)N1CCN(c2ccccc2F)CC1` [4-[4-(2-fluorophenyl)piperazin-1-yl]sulfonylmorpholine] was run?
**A.** The IC50 was > 79.4 µM.

**Q.** For `O=C(O)CCC(=O)N1CCN(c2nc(-c3ccccc3Cl)c3cc(Br)ccc3n2)CC1` [4-[4-[6-bromanyl-4-(2-chlorophenyl)quinazolin-2-yl]piperazin-1-yl]-4-oxidanylidene-butanoic acid], which IC50 is on record?
**A.** Its IC50 is > 79.4 µM.

**Q.** For `CCOC(=O)c1ccc(NC(=S)NCC(O)c2ccccc2)cc1` (stereo not given) [4-[(2-hydroxy-2-phenyl-ethyl)thiocarbamoylamino]benzoic acid ethyl ester], which IC50 is on record?
**A.** The IC50 was > 79.4 µM.

**Q.** Which IC50 does the source give for `COC(=O)c1ccc(NC(=O)CN2CCN(c3cccc(Cl)c3)CC2)cc1` [4-[[2-[4-(3-chlorophenyl)-1-piperazinyl]-1-oxoethyl]amino]benzoic acid methyl ester] here?
**A.** Its IC50 is > 79.4 µM.

**Q.** `O=C(O)c1ccc(CSc2n[nH]c(-c3ccco3)n2)cc1` [4-[[5-(furan-2-yl)-1H-1,2,4-triazol-3-yl]sulfanylmethyl]benzoic acid] was tested. Which IC50 did it give?
**A.** The IC50 was > 79.4 µM.

**Q.** How did the IC50 turn out when `Fc1ccc(Sc2cc(Cl)c(-c3ccccc3)nn2)cc1` [4-chloranyl-6-(4-fluorophenyl)sulfanyl-3-phenyl-pyridazine] was run?
**A.** Its IC50 is > 79.4 µM.

**Q.** For `O=C(NN=C1C(=O)c2cccc3cccc1c23)c1ccc(Cl)cc1` [4-chloranyl-N-[(2-oxidanylideneacenaphthylen-1-ylidene)amino]benzamide], which IC50 is on record?
**A.** The IC50 was 17.8 µM.
